Data on 2 molecules can be found in patent US9273095B2, “Antibiotic peptide and preparation method therefor and application therefor” (priority 2011, dated 2016).

For the series, the system named is red cell suspension from healthy volunteers. Put plainly: Hemolytic activity test. Type of series: cell-based, human. The settings on record: for Hemolytic activity, absorbancy (OD value) at 570 nm: 4 hours at 37° C., OD higher than 0.1 is hemolytic, n = 3; for hemolytic toxicity (in words): summary of Table 9. On the procedure:
(1) Samples are serial diluted with sterile PBS to 1000, 500, 250, 125, 64, 32, 16, 8, 4 μg/ml in turn and spread in 96-well plates, 100 μl per orifice.
(2) We use distilled water as positive control, sterile PBS as negative control and blank orifice with 200 μl PBS solution added. Each concentration above is made in triplicate.
(3) We take 3 ml whole blood from healthy volunteers and washed it with sterile PBS three times to prepare fresh 2% concentration red cell suspension. Then we added 100 μl red cell suspension into each orifice and made them cultured for 4 hours at 37° C. in the incubator. After centrifuged by plate-swashing centrifuge, the supernatant liquid is collected and measured absorbancy (OD value) at a wavelength of 570 nm. Then we compared the hemolytic efficiency of these concentrations.
(4) According to the documents standard, OD value which is higher than 0.1 is hemolytic concentration.

Non-standard residues stand in square brackets, D forms with d. Residues, ends and D or L forms follow the SMILES beside them.

For `CC[C@@H](C)[C@@H](NC(=O)[C@@H](CCCCN)NC(=O)[C@@H](CO)NC(=O)[C@@H](Cc1ccccc1)NC(=O)[C@@H](CC(C)C)NC(=O)[C@@H](CCCCN)NC(=O)[C@@H](CCC(=O)O)NC(=O)[C@@H](CC(C)C)NC(=O)[C@@H](CCCNC(=N)N)NC(=O)[C@@H](CCCCN)NC(=O)[C@@H](Cc1ccccc1)NC(C)=O)C(=O)N[C@H](Cc1c[nH]c2ccccc12)C(=O)N[C@H](CC(N)=O)C(=O)N[C@H](Cc1c[nH]c2ccccc12)C(=O)N[C@H](CCCCN)C(N)=O` [PL-17] (Ac-[dF][dK][dR][dL][dE][dK][dL][dF][dS][dK][dI][dW][dN][dW][dK]-NH2), the “hemolytic toxicity (in words)” value is “little hemolytic toxicity”. Moreover, the “Hemolytic activity, absorbancy (OD value) at 570 nm” value (“Hemolytic activity, absorbancy” below) (peptide 7.8125 μg/ml) is 0.033. Also, the “Hemolytic activity, absorbancy” value (peptide 15.625 μg/ml) came to 0.056. Besides, the “Hemolytic activity, absorbancy” value (peptide 31.25 μg/ml) is on record as 0.063. Moreover, for the setting “peptide 62.5 μg/ml”, the “Hemolytic activity, absorbancy” value is listed as 0.065. The “Hemolytic activity, absorbancy” value (peptide 125 μg/ml) was determined as 0.078. Further, the “Hemolytic activity, absorbancy” value (peptide 250 μg/ml) is on record as 0.082. Besides, the “Hemolytic activity, absorbancy” value (peptide 500 μg/ml) was 0.152. The “Hemolytic activity, absorbancy” value (peptide 1000 μg/ml) amounted to 0.339.
As to Ac-FKKLKKLFSKLWNWK-NH2 [PL-13], the “hemolytic toxicity (in words)” value is “little hemolytic toxicity”. Besides, the “Hemolytic activity, absorbancy” value (peptide 7.8125 μg/ml) turned out to be 0.043. Further, under “peptide 15.625 μg/ml”, the “Hemolytic activity, absorbancy” value was found to be 0.059. Moreover, the “Hemolytic activity, absorbancy” value (peptide 31.25 μg/ml) was 0.065. Also, the “Hemolytic activity, absorbancy” value (peptide 62.5 μg/ml) is 0.090. In addition, the “Hemolytic activity, absorbancy” value (peptide 125 μg/ml) is listed as 0.117. In addition, the “Hemolytic activity, absorbancy” value (peptide 250 μg/ml) is recorded as 0.184. The “Hemolytic activity, absorbancy” value (peptide 500 μg/ml) is on record as 0.220. For the setting “peptide 1000 μg/ml”, the “Hemolytic activity, absorbancy” value is listed as 0.310.
